Numbered stars: 1 amine (or outer) side, 2 acyl side, 3 side chain; on linkers, the order of the positions; unused ones are H or OH. Square brackets hold non-standard residues; d marks the D form. Peptide text beside a SMILES is read from it. * marks the point of attachment. NMeNle = CCCC[C@H](NC)C(=O)O; Suc = O=C(CCC(=O)[*:2])[*:1]; Malonamoyl = NC(=O)CC(=O)*; X3 = O=C(CS(=O)(=O)O)*; Boc = CC(C)(C)OC(=O)*; X2 = COC(=O)CC(=O)*; βAla = NCCC(=O)O
How the values were obtained:
[1] = molecular target: T1, Cholecystokinin receptor type A (Cavia porcellus, UniProt Q63931); experiment: Affinity against Cholecystokinin type A receptor on guinea pig pancreatic membranes.
T1 sequence (Q63931 whole entry): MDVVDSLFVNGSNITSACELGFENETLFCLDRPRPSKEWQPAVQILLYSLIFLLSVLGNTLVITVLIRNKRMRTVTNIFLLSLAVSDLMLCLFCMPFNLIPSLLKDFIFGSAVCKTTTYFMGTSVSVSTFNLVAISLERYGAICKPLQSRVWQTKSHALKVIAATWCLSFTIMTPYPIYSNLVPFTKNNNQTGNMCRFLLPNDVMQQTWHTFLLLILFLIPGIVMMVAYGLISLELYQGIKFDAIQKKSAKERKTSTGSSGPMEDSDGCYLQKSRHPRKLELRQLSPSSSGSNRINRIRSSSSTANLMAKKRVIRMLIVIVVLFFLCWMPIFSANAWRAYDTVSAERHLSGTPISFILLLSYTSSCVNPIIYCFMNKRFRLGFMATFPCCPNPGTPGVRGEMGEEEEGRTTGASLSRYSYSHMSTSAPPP

[2] = molecular target: T2, Gastrin/cholecystokinin type B receptor (Rattus norvegicus, UniProt P30553); experiment: Compound was tested for binding affinity against Cholecystokinin type B receptor expressed in CHO cells on the rat brain.; type: cell-based
T2 sequence (P30553 whole entry): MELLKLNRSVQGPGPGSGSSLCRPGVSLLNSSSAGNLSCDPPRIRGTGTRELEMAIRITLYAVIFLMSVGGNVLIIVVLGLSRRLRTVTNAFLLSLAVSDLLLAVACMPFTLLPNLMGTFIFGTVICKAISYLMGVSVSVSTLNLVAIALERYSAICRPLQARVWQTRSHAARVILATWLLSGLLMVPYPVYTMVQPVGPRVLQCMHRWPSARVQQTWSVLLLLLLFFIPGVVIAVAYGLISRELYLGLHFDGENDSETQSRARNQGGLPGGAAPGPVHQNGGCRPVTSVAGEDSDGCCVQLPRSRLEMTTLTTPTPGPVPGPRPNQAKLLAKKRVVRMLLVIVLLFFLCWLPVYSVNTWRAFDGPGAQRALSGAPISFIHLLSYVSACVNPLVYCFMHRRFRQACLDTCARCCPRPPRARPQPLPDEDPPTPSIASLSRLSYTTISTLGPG

[3] = molecular target: Gastrin/cholecystokinin type B receptor (Cavia porcellus); experiment: Binding affinity against cholecystokinin type B receptor on guinea pig cortex.
[4] = molecular target: T2, Gastrin/cholecystokinin type B receptor; experiment: Affinity against Cholecystokinin type B receptor expressed in CHO cells on rat brain.; type: functional, cell-based

Row | Compound | Ki [1] [µM] | also measured
1 | CCCC[C@@H](C(=O)N[C@@H](CC(=O)O)C(=O)N[C@@H](Cc1ccccc1)C(N)=O)N(C)C(=O)[C@H](Cc1c[nH]c2ccccc12)NC(=O)[C@H](C)N | > 3 | –
2 | C[C@@]1(Cc2c[nH]c3ccccc23)NC(=O)CCCCCCC[C@@H](C(=O)N[C@@H](CC(=O)O)C(=O)N[C@@H](Cc2ccccc2)C(N)=O)NC1=O | 2.21 | –
3 | CCCC[C@@H](C(=O)N[C@@H](CC(=O)O)C(=O)N[C@@H](Cc1ccccc1)C(N)=O)N(C)C(=O)[C@H](Cc1c[nH]c2ccccc12)NC(=O)[C@@H](C)N | > 3 | –
4 | CCCC[C@H](NC(=O)[C@H](Cc1c[nH]c2ccccc12)NC(=O)[C@H]1CCCCNC(=O)C[C@H](NC(=O)OC(C)(C)C)C(=O)N[C@H](Cc2ccc(OS(=O)(=O)O)cc2)C(=O)N[C@@H](CCCC)C(=O)N1)C(=O)N[C@@H](CC(=O)O)C(=O)N[C@@H](Cc1ccccc1)C(N)=O | 2.9 | –
5 | CCCC[C@@H](C(=O)N[C@@H](CC(=O)O)C(=O)N[C@@H](Cc1ccccc1)C(N)=O)N(C)C(=O)[C@H](Cc1c[nH]c2ccccc12)NC(=O)OC(C)(C)C (Boc-W[NMeNle]DF-NH2) | > 5 | Ki [2]: 0.0026 µM; Ki [3]: 0.0008 µM
6 | CCCC[C@@H](C(=O)N[C@@H](CC(=O)O)C(=O)N[C@@H](Cc1ccccc1)C(N)=O)N(C)C(=O)[C@H](Cc1c[nH]c2ccccc12)NC(=O)CN (H-GW[NMeNle]DF-NH2) | > 3 | –
7 | CCCC[C@@H](C(=O)N[C@@H](CC(=O)O)C(=O)N[C@@H](Cc1ccccc1)C(N)=O)N(C)C(=O)[C@@H](N)Cc1c[nH]c2ccccc12 (H-W[NMeNle]DF-NH2) | > 3 | –
8 | CCCC[C@@H](C(=O)N[C@@H](CC(=O)O)C(=O)N[C@@H](Cc1ccccc1)C(N)=O)N(C)C(=O)[C@H](Cc1c[nH]c2ccccc12)NC(=O)CC(N)=O (Malonamoyl-W[NMeNle]DF-NH2) | 22.8 | EC50 [4]: 0.00164 µM
9 | CCCC[C@@H](C(=O)N[C@@H](CC(=O)O)C(=O)N[C@@H](Cc1ccccc1)C(N)=O)N(C)C(=O)[C@H](Cc1c[nH]c2ccccc12)NC(=O)CCC(=O)O (Suc-W[NMeNle]DF-NH2) | > 3 | –
10 | CCCC[C@@H](C(=O)N[C@@H](CC(=O)O)C(=O)N[C@@H](Cc1ccccc1)C(N)=O)N(C)C(=O)[C@H](Cc1c[nH]c2ccccc12)NC(=O)CC(=O)OC (X2-W[NMeNle]DF-NH2) | – | EC50 [4]: 0.002 µM
11 | CCCC[C@@H](C(=O)N[C@@H](CC(=O)O)C(=O)N[C@@H](Cc1ccccc1)C(N)=O)N(C)C(=O)[C@H](Cc1c[nH]c2ccccc12)NC(=O)CS(=O)(=O)O (X3-W[NMeNle]DF-NH2) | – | EC50 [4]: 0.00056 µM
12 | CCCC[C@@H](C(=O)N[C@@H](CC(=O)O)C(=O)N[C@@H](Cc1ccccc1)C(N)=O)N(C)C(=O)[C@H](Cc1c[nH]c2ccccc12)NC(=O)CCNC(=O)OC(C)(C)C ({Boc-βAla}-W[NMeNle]DF-NH2) | 4.62 | –
